{"source": "patent US9040567B2", "about": "“BAX agonist, compositions, and methods related thereto” (Emory University, priority 2011, dated 2015)", "key": {"A549 cells [1]": {"test_system": "A549 cells"}, "A549 cells [2]": {"test_system": "A549 cells", "test": "apoptosis by ApoAlert Annexin-V kit in A549 cells", "settings": "1 μM, 48 h", "description": "(§3) (B) H1299, A549 or SAEC cells were treated with various types of small molecules (1 μM) for 48 h. Cell viability was assessed using ApoAlert Annexin-V kit. DMSO or cisplatin (40 μM) was used as a negative or positive control, respectively."}, "H1299 cells": {"test_system": "H1299 cells", "test": "apoptosis by ApoAlert Annexin-V kit in H1299 cells", "settings": "1 μM, 48 h", "description": "as §3"}, "[3]": {"test_system": "A549 lung cancer xenografts", "test": "TUNEL assay of apoptosis in xenograft tumor tissues", "settings": "50 mg/kg for 24 h", "description": "Apoptosis in tumor tissues was measured by TUNEL assay.\nApoptosis in tumor tissues was analyzed by TUNEL assay."}, "[4]": {"test_system": "A549 lung cancer xenografts", "test": "A549 subcutaneous lung tumor xenografts in nude mice", "description": "At day 6, tumors were removed and photographed. […] Tumor volume was estimated by caliper measurements, data are mean±s.e.m. […] Apoptosis in tumor tissues was measured by TUNEL assay."}, "[5]": {"test_system": "primary normal small airway epithelial cells (SAEC)", "test": "apoptosis by ApoAlert Annexin-V kit in normal small airway epithelial cells", "settings": "1 μM, 48 h", "description": "as §3"}, "[6]": {"test_system": "A549 human lung cancer cells", "test": "sulforhodamine B (SRB) assay, surviving cell fraction", "assay_type": "cell-based"}, "BAX": {"biological_target": "T1, BAX (Homo sapiens, UniProt Q07812)", "T1 construct": "A549 cells expressing endogenous BAX were metabolically labeled; endogenous in cells; host or cells: A549 cells", "test": "BAX phosphorylation in 32P-labeled A549 cells (autoradiography)", "assay_type": "cell-based", "settings": "nicotine 1 μM, 60 min", "experimental": "(§1) (A) A549 cells expressing endogenous BAX were metabolically labeled with ^32P-orthophosphoric acid and treated with nicotine for 60 min. BAX was immunoprecipitated by using an agarose-conjugated BAX antibody. Phosphorylation of BAX was determined by autoradiography. […] (C) A549 cells were treated with cisplatin (40 μM) in the absence or presence of nicotine (1 μM) for various times as indicated. Cell viability was analyzed for Annexin-V and PI binding by flow cytometry. […] Cells were metabolically labeled with ^32P-orthophosphoric acid and treated with nicotine for 60 min. Phosphorylated GFP-tagged BAX was analyzed by autoradiography. […] After 48 h, cells were treated with cisplatin (Cis) in the absence or presence of nicotine for 24 h. Cell viability was analyzed as in (C).\n(§2) To test whether BAX phosphorylation occurs in human lung cancer cells, A549 cells were metabolically labeled and treated with nicotine (1 μM) for 60 min. […] To test whether nicotine induces BAX phosphorylation at ser184, WT, S184A or S184E cDNA in the pcDNA3 mammalian expression vector was transfected into H157 cells."}, "BAX Ser184": {"test_system": "BAX Ser184", "test": "BAX phosphorylation in H157 cells transfected with WT, S184A or S184E BAX", "assay_type": "cell-based, human", "settings": "H157 cells expressing WT, 60 min", "experimental": "as §1, §2"}, "[7]": {"settings": "A549 cells, 48 h, SRB assay, read-out: IC50"}}, "note": "Read-outs that look alike come from different tables or passages of the source.", "data": [{"smiles": "O=[N+]([O-])c1ccc2c(c1)C(=Cc1ccccc1O)c1ccccc1-2", "note": "[SMBA1]", "values": [{"measurement": "apoptotic cell death in combination with cisplatin", "setting": "A549 cells [1]; combination with cisplatin", "value": "enhances apoptotic cell death"}, {"measurement": "apoptotic effect", "setting": "A549 cells [2]", "value": "potent apoptotic effect"}, {"measurement": "apoptotic effect", "setting": "H1299 cells", "value": "potent apoptotic effect"}, {"measurement": "apoptosis in tumor tissues (TUNEL)", "setting": "[3]", "value": "resulted in apoptosis in tumor tissues"}, {"measurement": "tolerability of treatment doses", "setting": "[4]; 25, 50 or 75 mg/kg i.p. q.d. for two weeks", "value": "well tolerated"}, {"measurement": "effect on established tumor xenografts (tumor volume)", "setting": "[4]; 25, 50 or 75 mg/kg i.p. q.d. for two weeks, preliminary results", "value": "significant regression of established lung cancer xenografts"}, {"measurement": "toxicities on liver, kidney and heart", "setting": "[4]; doses of 50-75 mg/kg", "value": "well tolerated without significant toxicities on liver, kidney and heart"}, {"measurement": "apoptotic effect on normal cells compared to H1299 or A549 cells", "setting": "[5]", "value": "significantly less apoptotic effect"}]}, {"smiles": "NCCOc1ccccc1C=C1c2ccccc2-c2ccc([N+](=O)[O-])cc21", "note": "[CYD-2-11, 2-[2-(2-Nitro-fluoren-9-ylidenemethyl)-phenoxy]-ethylamine]", "values": [{"measurement": "IC50", "setting": "[6]; [7]", "value": 1.93, "unit": "µM"}]}, {"smiles": "O=[N+]([O-])c1ccc2c(c1)C(=Cc1ccccc1OC1CCNCC1)c1ccccc1-2", "note": "[CYD-2-13, 4-[2-(2-Nitro-fluoren-9-ylidenemethyl)-phenoxy]-piperidine]", "values": [{"measurement": "IC50", "setting": "[6]; [7]", "value": 5.91, "unit": "µM"}]}, {"smiles": "NCCOc1ncccc1C=C1c2ccccc2-c2ccc([N+](=O)[O-])cc21", "note": "[CYD-4-61, 2-[3-(2-Nitro-fluoren-9-ylidenemethyl)-pyridin-2-yloxy]-ethylamine]", "values": [{"measurement": "IC50", "setting": "[6]; A549, 48 h", "value": 0.026, "unit": "µM"}]}, {"smiles": "CN1CCCC1c1cccnc1", "note": "(stereo not drawn) [nicotine]", "values": [{"measurement": "BAX phosphorylation", "setting": "BAX", "value": "potently stimulates serine phosphorylation of BAX"}, {"measurement": "phosphorylation of WT and mutant BAX", "setting": "BAX Ser184", "value": "induces phosphorylation of WT but not S184A or S184E mutant BAX"}, {"measurement": "survival of A549 cells following cisplatin treatment", "setting": "A549 cells [1]; cisplatin 40 μM, nicotine 1 μM", "value": "significantly prolongs survival of A549 cells"}]}, {"smiles": "CC(=O)N1CCN(CCOc2ccccc2C=C2c3ccccc3-c3ccc([N+](=O)[O-])cc32)CC1", "note": "[CYD-2-17, 1-(4-{2-[2-(2-Nitro-fluoren-9-ylidenemethyl)-phenoxy]-ethyl}-piperazin-1-yl)-ethanone]", "values": [{"measurement": "IC50", "setting": "[6]; [7]", "value": 5.08, "unit": "µM"}]}]}
